Measurements from article PMC9841523 (Journal of Medicinal Chemistry, 2022).
Like-named read-outs stand apart in the source and are kept apart here.

What was measured:
Type in all cases: cell-based
[1] = test system: p-P70S6K Thr389; test: AlphaLISA/MSD analysis of S6K phosphorylation in MDA-MB-468 cells; conditions: MDA-MB-468 cells, read-out: pS6K IC50
Procedure: (§1) Cell culture and reagents. Cells were obtained from ATCC, grown in appropriate medium supplemented with 10% fetal bovine serum and 1% penicillin/streptomycin and maintained at 37 °C in a humidified incubator at 5% CO 2.
(§2) AlphaLISA and MesoScale Discovery (MSD) analysis of 4EBP1, S6K and AKT phosphorylation. mTOR substrate phosphorylation in MDA-MB-468 cells was assayed using AlphaLISA SureFire Ultra kits for p4EBP1 Thr37/46, p-P70S6K Thr389 and p-AKT1/2/3 Ser473 (PerkinElmer), and MSD Multi-Array Assay Systems for Phospho-4EBP1 (Thr37/46) and Phospho-AKT (Ser473) (MSD). Cells were seeded at 25,000 cells per well and exposed the next day to serial three-fold dilutions of compounds in complete medium with 0.1% dimethylsulfoxide (DMSO). After indicated incubation times, cells were lysed and AlphaLISA or MSD performed according to the manufacturers’ protocols. Samples were read using an EnVision Multilabel Plate Reader (PerkinElmer) using standard AlphaLISA settings or using an MSD plate reader. Data were plotted as a function of logM [compound] with a sigmoidal concentration response (variable slope) model fitted to the data to estimate the inhibitor half-maximum effective concentration (EC 50) in Prism 7 (GraphPad). Alternatively, results were analyzed as percentage of control in which 0% was set as signal from 1 μM Torin1 and 100% was set as the mean of DMSO wells on each plate, and inhibitor EC 50 was estimated as described

[2] = test system: 4EBP1 T37/T46 phosphorylation (mTORC1); test: AlphaLISA/MSD analysis of 4EBP1 phosphorylation in MDA-MB-468 cells; conditions: for IC50: MDA-MB-468 cells, read-out: p4EBP1 IC50; for reduction in mTORC1 p4EBP1 activity on going from 8 PEG units to 6 PEG units: versus the 8 PEG analog
Procedure: as §1, §2

[3] = test system: AKT S473 phosphorylation (mTORC2); test: AlphaLISA/MSD analysis of AKT phosphorylation in MDA-MB-468 cells
Procedure: as §1, §2

[4] = Homo sapiens, MDA-MB-468 cells, read-out: pAKT IC50

| Molecule | IC50 ([1]; Homo sapiens) | IC50 ([2]; Homo sapiens) | IC50 [3, 4] | also measured |
| --- | --- | --- | --- | --- |
| CO[C@H]1C[C@@H]2CC[C@@H](C)[C@@](O)(O2)C(=O)C(=O)N2CCCC[C@H]2C(=O)O[C@H]([C@H](C)C[C@@H]2CC[C@@H](OC(=O)NCCOCCOCCOCCOCCOCCOCCOCCOCCC(=O)N3CCc4cc(Cn5nc(-c6ccc7oc(N)nc7c6)c6c(N)ncnc65)ccc4C3)[C@H](OC)C2)CC(=O)[C@H](C)/C=C(\C)[C@@H](O)[C@@H](OC)C(=O)[C@H](C)C[C@H](C)/C=C/C=C/C=C/1C [compound 30] | 0.19 nM | 0.42 nM | 4.7 nM |  |
| BGT226 [compound 7, reference compound] |  |  |  | IC50 [1]: 0.27 nM; IC50 [2]: 4.4 nM; selectivity (mTORC1/mTORC2 ratio) ([2]; pAKT IC50 versus p4EBP1 IC50, MDA-MB-468 cells): 0.3; IC50 ([3]; MDA-MB-468 cells, read-out: pAKT IC50): 1.4 nM |
| CO[C@H]1C[C@@H]2CC[C@@H](C)[C@@](O)(O2)C(=O)C(=O)N2CCCC[C@H]2C(=O)O[C@H]([C@H](C)C[C@@H]2CC[C@@H](OCCCCc3cn(CCOCCOCCOCCOCCOCCOCCOCCOCCC(=O)N4CCC(Cn5nc(-c6ccc7oc(N)nc7c6)c6c(N)ncnc65)CC4)nn3)[C@H](OC)C2)CC(=O)[C@H](C)/C=C(\C)[C@@H](O)[C@@H](OC)C(=O)[C@H](C)C[C@H](C)/C=C/C=C/C=C/1C [compound 22] | 0.16 nM | 0.67 nM | 1.8 nM |  |
| CO[C@H]1C[C@@H]2CC[C@@H](C)[C@@](O)(O2)C(=O)C(=O)N2CCCC[C@H]2C(=O)O[C@H]([C@H](C)C[C@@H]2CC[C@@H](OCCCCc3cn(CCOCCOCCOCCOCCOCCOCCC(=O)NCCCCn4nc(-c5cnc6[nH]ccc6c5)c5c(N)ncnc54)nn3)[C@H](OC)C2)CC(=O)[C@H](C)/C=C(\C)[C@@H](O)[C@@H](OC)C(=O)[C@H](C)C[C@H](C)/C=C/C=C/C=C/1C [compound 24] | 0.24 nM | 31 nM | 110 nM | reduction in mTORC1 p4EBP1 activity on going from 8 PEG units to 6 PEG units [2]: > 30 fold |
| CO[C@H]1C[C@@H]2CC[C@@H](C)[C@@](O)(O2)C(=O)C(=O)N2CCCC[C@H]2C(=O)O[C@H]([C@H](C)C[C@@H]2CC[C@@H](OCCCCc3cn(CCOCCOCCOCCOCCOCCOCCOCCOCCC(=O)NCCCCn4nc(-c5cnc6[nH]ccc6c5)c5c(N)ncnc54)nn3)[C@H](OC)C2)CC(=O)[C@H](C)/C=C(\C)[C@@H](O)[C@@H](OC)C(=O)[C@H](C)C[C@H](C)/C=C/C=C/C=C/1C [compound 20] | 0.22 nM | 1 nM | 17 nM |  |
| CO[C@H]1C[C@@H]2CC[C@@H](C)[C@@](O)(O2)C(=O)C(=O)N2CCCC[C@H]2C(=O)O[C@H]([C@H](C)C[C@@H]2CC[C@@H](OCCCCc3cn(CCOCCOCCOCCOCCOCCOCCC(=O)NCCCCn4nc(-c5cc6cc(O)ccc6[nH]5)c5c(N)ncnc54)nn3)[C@H](OC)C2)CC(=O)[C@H](C)/C=C(\C)[C@@H](O)[C@@H](OC)C(=O)[C@H](C)C[C@H](C)/C=C/C=C/C=C/1C [compound 25] | 0.59 nM | 370 nM | 120 nM | reduction in mTORC1 p4EBP1 activity on going from 8 PEG units to 6 PEG units [2]: > 250 fold |
| COc1ccc(-c2ccc3ncc4c(c3c2)n(C)c(=O)n4-c2ccc(N3CCN(C(=O)CCOCCOCCOCCOCCOCCOCCOCCOCCn4cc(CCCCO[C@@H]5CC[C@@H](C[C@@H](C)[C@@H]6CC(=O)[C@H](C)/C=C(\C)[C@@H](O)[C@@H](OC)C(=O)[C@H](C)C[C@H](C)/C=C/C=C/C=C(\C)[C@@H](OC)C[C@@H]7CC[C@@H](C)[C@@](O)(O7)C(=O)C(=O)N7CCCC[C@H]7C(=O)O6)C[C@H]5OC)nn4)CC3)c(C(F)(F)F)c2)cn1 [compound 19] | 0.02 nM | 0.06 nM | 0.52 nM |  |
| CO[C@H]1C[C@@H]2CC[C@@H](C)[C@@](O)(O2)C(=O)C(=O)N2CCCC[C@H]2C(=O)O[C@H]([C@H](C)C[C@@H]2CC[C@@H](OCCCCc3cn(CCOCCOCCOCCOCCOCCC(=O)NCCCCn4nc(-c5ccc6oc(N)nc6c5)c5c(N)ncnc54)nn3)[C@H](OC)C2)CC(=O)[C@H](C)/C=C(\C)[C@@H](O)[C@@H](OC)C(=O)[C@H](C)C[C@H](C)/C=C/C=C/C=C/1C [compound 28] | 0.37 nM | 25 nM | 33 nM |  |
| Nc1ncnc2c1c(-c1cnc3[nH]ccc3c1)nn2C1CCCC1 [compound 8, PP121, reference compound] |  |  |  | IC50 ([3]; Homo sapiens, MDA-MB-468, read-out: pAKT IC50): 100 nM |
